Results taken from patent publication US20240141356A1, “Driving Axon Regeneration by Activating STAT1 Signaling and cGAS-STING Pathway” (The Hong Kong University of Science and Technology, priority 2022, published 2024).

Key:
[1] = tested on: DRG neurons; experiment: Adult DRG neuron primary culture, length of the longest axon (compound test); type: cell-based, mouse; conditions: cGAMP 10 μM; for axon elongation / axon growth in DRG culture: WT DRG neurons, DMXAA 10 μM, C-176 1 μM, H-151 1 μM; for effect on the growth effect induced by cGAMP: DRG culture, DCPIB 100 nM, CBX 10 μM
Procedure: (§1) In some embodiments, in-vitro screening models of axon regeneration are based on DRG electroporation and replating culture. Adult DRGs were cultured and replated according to the protocol described previously (Weng et al., 2018). In certain embodiments, adult mice were euthanized, and L4-L6 DRGs were dissected from both sides. DRGs were dissociated in 0.5% collagenase for 1.5 hours. Then the medium containing collagenase was replaced by Neurobasal A, and DRGs were gently pipetted 20 times for dissociation. For electroporation, dissociated DRG neurons were transfected by Mouse Neuron Nucleofector Kit in Lonza Nucleofector system using program G103. 6 DRGs and 5 μg plasmid were used for each reaction. Neurobasal-A with 10% B27 supplement was used as the culture medium for DRG neurons.
(§2) For quantification of neurite lengths in DRG culture. Cells were fixed and stained with TurboGFP (phosphatase shRNA library screening) or Tuj 1. The lengths of the longest axons in each DRG neuron were quantified by the NeuronJ plugin in ImageJ. For phosphatase screening, 5-10 neurons were quantified for each shRNA. For the compound test, 10-20 cells from each mouse and 3 mice were quantified in each group.

[2] = tested on: retinal ganglion cells (RGCs); experiment: Optic nerve crush, number of regenerating axons (CTB labeling); type: in vivo, mouse
[3] = tested on: cGAS; experiment: cGAS expression in retina/RGCs after optic nerve injury (western blot, immunostaining); type: in vivo, mouse
[4] = tested on: p-STAT1; experiment: p-STAT1 in RGCs/retina after optic nerve injury (immunostaining, western blot); type: in vivo, mouse; conditions: for p-STAT1 accumulation in the nuclei of RGCs: WT, IFNγ administration
[5] = tested on: p-STAT3; experiment: p-STAT3 in RGCs after optic nerve injury (immunostaining); type: in vivo, mouse; conditions: Ptpn2 KO group with IFNγ, 1 dpc
[6] = tested on: retinal ganglion cells (RGCs); conditions: 2 WPI
[7] = tested on: IFNγ; experiment: Ex-vivo model of sciatic nerve injury, IFNγ immunostaining; design: species or system mouse; conditions: injured sciatic nerve segments in DMEM, anisomycin 200 μg/ml, 3-hour incubation
Procedure: For the ex-vivo model of sciatic nerve injury, the nerves were crushed and then cut into about 3 mm to about 5 mm segments. The injured nerve segments were incubated in DMEM supplemented with about 10% FBS and about 1% penicillin/streptomycin. Translation was inhibited by 200 μg/ml anisomycin. After about a 3-hour incubation, nerve segments were fixed by 4% PFA for about 2 hours and then proceeded to the frozen section.
Mice were first perfused by PBS and then 4% PFA for 5 minutes for fixation. Respective tissues were dissected and then post-fixed in 4% PFA for two hours. Fixed tissues were incubated in 30% sucrose overnight and then embedded in an optimum cutting temperature (OCT) compound. Frozen sections were then permeabilized with 0.1% Triton X-100, blocked by 4% normal goat serum for 30 min, and incubated by respective primary antibodies overnight. After PBS washing three times, sections were incubated by secondary antibodies for two hours and washed three times again. Images were taken by Leica SP8 confocal microscope.

[8] = tested on: adult DRG neurons; experiment: DRG replating assay, phosphatase inhibitor screening; type: cell-based, mouse; conditions: replated adult DRG neurons, inhibitors 100 nM
Procedure: as §1
The culture was replated three days after electroporation. The DRG neurons in the primary culture were gently flushed by 20-30 pipetting to be resuspended in the culture medium. […] The lengths of the longest axons in each DRG neuron were quantified by the NeuronJ plugin in ImageJ. […]
as §2, with “Cells were fixed and stained with TurboGFP (phosphatase shRNA library screening) or Tuj 1.” left out

[9] = tested on: embryonic DRG neurons; experiment: Embryonic DRG culture in compartmented chamber, in-vitro axotomy; type: cell-based, mouse; conditions: ADU-S100 10 μM added to the axonal or the soma compartment
Procedure: To culture embryonic DRG in the compartmented chamber, embryonic DRGs were dissected from E13.5 pregnant C57BL/6 mouse embryos in Leibovitz's L-15 medium on ice. Tissues were dissociated in TrypLE for 15 minutes at 37° C. Dissociated neurons were plated in the microfluidic chamber on cleaned glass coverslips pre-coated with poly-D-lysine and laminin in the density of 100000 cells per chamber with 5 μL culture medium supplemented with GlutaMAX (2 mM), B27 (20 ml/l), penicillin-Streptomycin, NGF ([…]) and 5-fluoro-2′-deoxyuridine (10 μM) into the somal compartment. After one hour, 200 μL medium was added into both the somal and axonal compartment. To perform in-vitro axotomy, axons in the axonal chamber were removed by a glass pipette connected to an aspirator. Then, a 150 μL medium was quickly added into the empty compartment. After 2 days in the […], cells were fixed by 4% PFA and then stained by Tuj 1 antibody. The lengths and/or number of longest axons in each chamber were quantified by ImageJ.

[10] = Ptpn2 cKO plus IFNγ after optic nerve injury

Cc1ccc2c(=O)c3cccc(CC(=O)O)c3oc2c1C [DMXAA, 5,6-Dimethylxanthenone-4-acetic acid]
axon elongation / axon growth in DRG culture [1]: enhanced the axon elongation

CC1(C)[C@@H](OC(=O)CCC(=O)O)CC[C@]2(C)[C@H]3C(=O)C=C4[C@@H]5C[C@@](C)(C(=O)O)CC[C@]5(C)CC[C@@]4(C)[C@]3(C)CC[C@@H]12 [CBX]
effect on the growth effect induced by cGAMP [1]: inhibit the growth effect induced by cGAMP

Nc1nc2c(ncn2[C@@H]2O[C@@H]3COP(=O)(O)O[C@H]4[C@@H](O)[C@H](n5cnc6c(N)ncnc65)O[C@@H]4COP(=O)(O)O[C@@H]2[C@@H]3O)c(=O)[nH]1 [2′,3′-cGAMP, reference compound]
growth effect of cGAMP on DRG culture ([1]; Sting deletion (Sting KO mice)): completely abolished
axon elongation / axon growth in DRG culture [1]: enhanced the axon elongation
axon regeneration after optic nerve crush ([2]; mouse, in vivo): stimulated significant axon regeneration
cGAMP-induced regeneration ([2]; mouse, in vivo): suppressed
cGAMP-stimulated axon regeneration ([2]; mouse, in vivo): almost completely blocked

CCCCC1(C2CCCC2)Cc2cc(OCCCC(=O)O)c(Cl)c(Cl)c2C1=O (stereo not shown) [DCPIB]
effect on the growth effect induced by cGAMP [1]: inhibit the growth effect induced by cGAMP

IFNγ: type II interferon, recombinant protein (Prospec)
cGAS in RGCs by immunostaining ([3]; Ptpn2 cKO in addition to IFNγ, 2 days after injury): upregulated
cGAS in retina by western blotting [3, 10]: detectable only in mouse retinas with Ptpn2 cKO plus IFNγ
p-STAT1 in RGCs ([4]; Ptpn2 KO group with IFNγ): enhanced up to 5 dpc
p-STAT1 in retina lysates by western blotting [4, 10]: most elevated among all groups
p-STAT1 accumulation in the nuclei of RGCs ([4]; 1 dpc): induced p-STAT1 accumulation
p-STAT1 accumulation in the nuclei of RGCs ([4]; 3 dpc): not at 3 dpc
phosphorylated STAT3 (p-STAT3) in RGCs [5]: also activated
optic nerve regeneration by IFNγ stimulation ([2]; Cgas or Sting KO mice with AAV-shRNA-Ptpn2, 0.1 μg/μL IFNγ, 2 weeks after injury): almost completely blocked
axons found at the optic chiasm, vs Pten/Socs3 mutant plus vehicle ([2]; Pten/Socs3/Ptpn2 triple KO with AAV-CNTF, IFNγ at time of injury, four weeks): about 3 fold
axon regeneration, exogenous ligand screen ([2]; Ptpn2 KO mice, protein injected into the eye at time of optic nerve crush, two weeks, IFNγ 0.1 μg/μL, leptin 2, insulin 2, EGF 1, bNGF 1 μg/μL): significantly boosted axon regeneration
axon regeneration, IFNγ plus Ptpn2 KO ([2]; Ptpn2 cKO mice, intravitreal IFNγ immediately after optic nerve injury (repeat with more controls)): elicited robust regeneration
axon regrowth, IFNγ alone ([2]; WT mice, intravitreal IFNγ immediately after optic nerve injury): induced modest regrowth
axon regeneration, triple KO plus IFNγ vs Pten/Socs3 mutant plus vehicle ([2]; mouse, in vivo): very significant increase in axon regeneration
RGC survival rates ([6]; WT or Ptpn2 cKO with PBS or IFNγ): comparable among the four groups
RGC survival ([6]; WT, Cgas, Sting or Mavs KO mice with AAV-shRNA-Ptpn2 and IFNγ): comparable among all groups

COc1ccc(C[C@H]2NC[C@H](O)[C@H]2OC(C)=O)cc1 [anisomycin]
reduction of the IFNγ signal [7]: over 50%

CCc1ccc(C(=O)NCCCCC(NC(=O)C(Cc2ccc(C(F)(F)P(=O)(O)O)cc2)NC(=O)C(Cc2ccccc2)NC(=O)COC2CC(C)CCC2C(C)C)C(N)=O)cc1 (stereo not shown) [PTPN2 inhibitor, reference compound]
in-vitro screening on inhibitors of mouse phosphatases (axon elongation) [8]: identified from the tyrosine phosphatase inhibitor screening
axon regeneration after optic nerve crush ([2]; mouse, in vivo): elicited modest axon regeneration

Nc1ncnc2c1ncn2[C@@H]1O[C@@H]2COP(=O)([S-])O[C@@H]3[C@H](O)[C@@H](COP([O-])(=S)O[C@H]2[C@H]1O)O[C@H]3n1cnc2c(N)ncnc21.[Na+].[Na+] (stereo partly shown) [ADU-S100, reference compound]
axon elongation after in-vitro axotomy [9]: enhanced axon elongation
axon regeneration after optic nerve crush ([2]; mouse, in vivo): regenerative effect in a dose-dependent manner
